In patent publication US20110288082A1, “METHODS AND COMPOSITIONS FOR INHIBITION OF THE TRANSITIONAL ENDOPLASMIC RETICULUM ATPASE” (priority 2010, published 2011) one finds IC50 data, which are given here for seven molecules.

The test system of experiment [1] is p97-dependent Ub^G76V-GFP degradation in HeLa cells. Put plainly: Ub^G76V-GFP degradation (turn-over) assay. Format: cell-based, human. The following applies: Homo sapiens, HeLa. A digest of the protocol: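 HeLa cells expressing Ub^G76V-GFP were imaged, and mean GFP intensity per cell area was taken over 300-500 cells, background-subtracted and normalized to DMSO-treated basal intensity. The degradation rate constant k with compound is expressed as percent of the DMSO control k.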

Another experiment concerns the target p97 (Homo sapiens, UniProt P55072). Put plainly: p97 ATPase assay (Kinase Glo Plus; biomol green for compounds that interfere with luciferase). The class given is biochemical. A digest of the protocol:
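Purified p97 in 50 mM Tris pH 7.4, 20 mM MgCl2, 1 mM EDTA, 0.5 mM TCEP, preincubated 10 min with compound (0–30 μM, triplicate), then ATP 60 min at room temperature. Remaining ATP read by Kinase Glo Plus luminescence, or biomol green at 630 nm for luciferase-interfering compounds; % activity versus DMSO and no-enzyme controls, mean ± SE.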
Background: Kinase-Glo reads ATP consumption through a luciferase reaction.

Where [2] appears, read: read-out: IC50 (μM) Ub^G76V-GFP turn over, Ub^G76V-GFP-expressing HeLa cells, degradation rate constant k from 90 to 180 min, mean +/- standard error.
Setting [3] is: purified p97, ATP, 60 min room temperature, mean +/- standard error.
Where [4] appears, read: read-out: IC50 (μM) Ub^G76V-GFP turn over, p97-dependent Ub^G76V-GFP degradation turn-over assay.

Read-outs that look alike come from different tables or passages of the source.

p97, sequence (P55072 2-806 limits assumed): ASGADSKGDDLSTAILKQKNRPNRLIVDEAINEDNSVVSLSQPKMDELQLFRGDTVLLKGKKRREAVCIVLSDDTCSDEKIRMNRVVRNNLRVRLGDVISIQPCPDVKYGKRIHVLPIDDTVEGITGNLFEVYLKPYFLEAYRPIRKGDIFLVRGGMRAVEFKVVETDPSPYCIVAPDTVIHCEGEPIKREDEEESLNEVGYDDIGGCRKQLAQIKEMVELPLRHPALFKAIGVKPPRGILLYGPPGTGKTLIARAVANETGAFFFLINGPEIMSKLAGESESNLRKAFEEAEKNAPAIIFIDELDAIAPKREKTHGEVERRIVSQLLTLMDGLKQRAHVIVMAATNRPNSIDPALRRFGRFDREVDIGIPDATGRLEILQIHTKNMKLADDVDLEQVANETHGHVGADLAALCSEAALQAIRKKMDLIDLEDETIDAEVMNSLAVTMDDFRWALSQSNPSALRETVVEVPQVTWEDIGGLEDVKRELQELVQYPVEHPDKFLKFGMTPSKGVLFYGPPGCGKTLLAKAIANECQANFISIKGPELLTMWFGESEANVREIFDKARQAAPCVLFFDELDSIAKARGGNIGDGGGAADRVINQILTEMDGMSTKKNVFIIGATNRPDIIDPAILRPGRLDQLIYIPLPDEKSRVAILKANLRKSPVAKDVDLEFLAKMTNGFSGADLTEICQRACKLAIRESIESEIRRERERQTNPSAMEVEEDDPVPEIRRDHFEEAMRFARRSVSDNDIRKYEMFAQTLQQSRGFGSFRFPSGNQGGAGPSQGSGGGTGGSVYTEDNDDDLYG

With `Fc1ccc(Nc2nc(NCc3ccccc3)c3ccccc3n2)cc1` [II-4], the IC50 – broadly, the point on the concentration scale where inhibition reaches its midpoint – in experiment [1] (setting [2]) turned out to be 9.4 ± 1 µM; on p97 (setting [3]), 3.8 ± 1.2 µM.
In the same order, the values of `Fc1ccc2c(NCc3ccccc3)nc(NCc3ccccc3)nc2c1` [VI-11] are 6.1 ± 0.8 µM and 2.6 ± 0.5 µM.
In the same order, the values of `Cc1ccc(-c2nc(NC(C)c3ccccc3)c3ccccc3n2)cc1` (centres unmarked) [I-30] are 17 ± 4 µM and 7 ± 4 µM.
For `Cc1ccccc1CNc1nc(Nc2cccc(Cl)c2)nc2ccccc12` [III-6], the IC50 in experiment [1] (setting [2]) turned out to be 11 ± 3 µM; on p97 (setting [3]), 4.2 ± 1.1 µM.
In the same order, the values of `Cc1cccc(Nc2nc(NCc3ccccc3)c3ccccc3n2)c1` [II-12] are 3 ± 0.7 µM and 1.7 ± 0.5 µM.
For `COc1ccc(Nc2nc(N3CCN(S(=O)(=O)c4ccc(C)cc4)CC3)nc3ccccc23)cc1` [XLVIII], the figures for the 50% inhibitory concentration (IC50) (in experiment [1] (setting [4]); on p97 (p97 ATPase assay)) were 39 ± 18 µM and 22 ± 12 µM, respectively.
In the same order, the values of `CN1CCN(c2nc(NCc3ccccc3)c3ccccc3n2)CC1` [XLV] are 31 ± 6 µM and 53 ± 18 µM.
